What was measured:
Assay type in all cases: cell-based
M3 muscarinic receptor = target: T1, M3 muscarinic receptor (Homo sapiens, UniProt P20309); experiment: Functional mobilization of intracellular calcium (FLIPR) in CHO cells expressing M3; details: for EC50: CHO cells expressing M3, FLIPR calcium; for Emax: CHO, 100% = maximum response obtained with the Carbachol control, read-out: M3 Efficacy
T1 construct: expressed in transfected cells; host or cells: CHO (M3-CHO)
Procedure, shortened: (§1)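 Calcium flux is read on FLIPR over 60 sec at 488/540 nm in muscarinic-receptor CHO lines. Antagonist mode adds carbachol at EC80 after 15 min compound preincubation or with simultaneous co-application. Agonist mode adds compound alone. Cells carry Fluo-3 or Calcium 3 dye in probenecid-containing pH 7.4 buffer, 0.5% DMSO final.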

M4 muscarinic receptor = target: T2, M4 muscarinic receptor (Homo sapiens, UniProt P08173); experiment: Functional mobilization of intracellular calcium (FLIPR) in CHO cells expressing M4; details: for EC50: CHO cells expressing M4, FLIPR calcium; for Emax: CHO, 100% = maximum response obtained with the Carbachol control, read-out: M4 Efficacy
T2 construct: expressed in transfected cells; host or cells: CHO (M4-CHO)
T2 sequence (P08173 1-479): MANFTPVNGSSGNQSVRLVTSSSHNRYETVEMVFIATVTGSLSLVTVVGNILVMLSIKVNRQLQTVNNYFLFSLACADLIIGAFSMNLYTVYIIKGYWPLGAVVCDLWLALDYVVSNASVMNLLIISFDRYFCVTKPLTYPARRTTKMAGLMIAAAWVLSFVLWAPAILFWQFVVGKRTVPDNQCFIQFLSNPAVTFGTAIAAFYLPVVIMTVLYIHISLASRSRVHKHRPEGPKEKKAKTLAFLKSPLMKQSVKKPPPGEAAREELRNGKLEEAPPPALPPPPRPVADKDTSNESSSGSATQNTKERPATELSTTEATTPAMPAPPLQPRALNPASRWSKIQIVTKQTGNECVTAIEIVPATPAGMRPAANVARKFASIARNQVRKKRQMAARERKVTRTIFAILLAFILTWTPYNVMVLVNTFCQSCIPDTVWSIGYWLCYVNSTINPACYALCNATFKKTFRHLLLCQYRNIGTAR
Procedure, shortened: as §1

M1 muscarinic receptor = target: T3, M1 muscarinic receptor (Homo sapiens, UniProt P11229); experiment: Functional mobilization of intracellular calcium (FLIPR) in CHO cells expressing M1; details: for EC50: CHO cells expressing M1, FLIPR calcium; for Emax: CHO, 100% = maximum response obtained with the Carbachol control, read-out: M1 Efficacy
T3 construct: expressed in transfected cells; host or cells: CHO (M1-CHO)
T3 sequence (P11229 1-460): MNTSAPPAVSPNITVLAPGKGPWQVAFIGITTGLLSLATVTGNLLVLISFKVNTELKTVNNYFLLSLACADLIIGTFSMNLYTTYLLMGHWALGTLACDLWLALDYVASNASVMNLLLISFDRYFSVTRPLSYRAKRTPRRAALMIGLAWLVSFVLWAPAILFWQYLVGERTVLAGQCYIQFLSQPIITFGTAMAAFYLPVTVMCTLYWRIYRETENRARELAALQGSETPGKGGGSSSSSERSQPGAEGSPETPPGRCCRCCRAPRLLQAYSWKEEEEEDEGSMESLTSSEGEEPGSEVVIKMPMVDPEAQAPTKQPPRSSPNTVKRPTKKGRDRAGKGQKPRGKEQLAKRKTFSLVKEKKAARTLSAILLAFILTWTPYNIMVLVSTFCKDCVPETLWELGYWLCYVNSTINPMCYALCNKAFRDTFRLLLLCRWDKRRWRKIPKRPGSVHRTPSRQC
Procedure, shortened: as §1

M2 muscarinic receptor = target: T4, M2 muscarinic receptor (Homo sapiens, UniProt P08172); experiment: Functional mobilization of intracellular calcium (FLIPR) in CHO cells expressing M2; details: for EC50: CHO cells expressing M2, FLIPR calcium; for Emax: CHO, 100% = maximum response obtained with the Carbachol control, read-out: M2 Efficacy
T4 construct: expressed in transfected cells; host or cells: CHO (M2-CHO)
T4 sequence (P08172 1-466): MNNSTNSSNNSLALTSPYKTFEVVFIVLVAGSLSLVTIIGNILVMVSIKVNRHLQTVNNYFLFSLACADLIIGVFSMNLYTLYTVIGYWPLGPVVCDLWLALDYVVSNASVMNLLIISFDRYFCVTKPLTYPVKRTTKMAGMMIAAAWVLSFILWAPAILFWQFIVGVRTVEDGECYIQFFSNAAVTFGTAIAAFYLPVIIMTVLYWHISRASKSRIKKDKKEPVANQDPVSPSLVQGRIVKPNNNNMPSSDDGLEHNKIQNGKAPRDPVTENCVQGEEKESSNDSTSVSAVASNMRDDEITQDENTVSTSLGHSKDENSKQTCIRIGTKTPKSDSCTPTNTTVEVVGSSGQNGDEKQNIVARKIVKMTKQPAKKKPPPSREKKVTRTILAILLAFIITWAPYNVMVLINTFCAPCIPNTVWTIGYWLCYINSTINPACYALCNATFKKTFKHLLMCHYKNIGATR
Procedure, shortened: as §1

T1 sequence (P20309 whole entry): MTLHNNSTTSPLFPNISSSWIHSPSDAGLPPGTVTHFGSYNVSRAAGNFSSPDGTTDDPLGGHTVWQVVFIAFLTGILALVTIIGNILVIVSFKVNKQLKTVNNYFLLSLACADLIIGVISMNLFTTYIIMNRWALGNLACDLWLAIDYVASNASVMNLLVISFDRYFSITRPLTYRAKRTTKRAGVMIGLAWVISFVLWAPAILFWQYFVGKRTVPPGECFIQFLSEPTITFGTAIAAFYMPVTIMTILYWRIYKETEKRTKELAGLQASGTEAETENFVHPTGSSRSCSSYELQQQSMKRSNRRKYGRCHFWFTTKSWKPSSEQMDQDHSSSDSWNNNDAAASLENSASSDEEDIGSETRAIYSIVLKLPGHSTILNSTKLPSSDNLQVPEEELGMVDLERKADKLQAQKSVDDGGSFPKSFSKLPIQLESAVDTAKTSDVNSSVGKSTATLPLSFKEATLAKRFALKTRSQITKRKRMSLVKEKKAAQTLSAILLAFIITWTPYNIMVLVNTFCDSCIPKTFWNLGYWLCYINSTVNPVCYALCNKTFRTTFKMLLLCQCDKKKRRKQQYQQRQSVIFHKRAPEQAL

CN1CC(C(=O)N[C@H]2CCC3(CCN(CCC(C)(C)C)CC3)c3ccccc32)CC1=O (stereo partly shown) [compound 144]
EC50 (M3 muscarinic receptor): > 5 µM | Emax (M3 muscarinic receptor): < 25% | EC50 (M4 muscarinic receptor): < 2 µM | Emax (M4 muscarinic receptor): 25 to 100% | EC50 (M1 muscarinic receptor): < 2 µM | Emax (M1 muscarinic receptor): 25 to 100% | EC50 (M2 muscarinic receptor): < 2 µM | Emax (M2 muscarinic receptor): 25 to 100%

CC(C)(C)CCN1CCC2(CC[C@H](NC(=O)CC3CCOCC3)c3ccc(F)cc32)CC1 [compound 145]
EC50 (M3 muscarinic receptor): > 5 µM | Emax (M3 muscarinic receptor): < 25% | EC50 (M4 muscarinic receptor): < 2 µM | Emax (M4 muscarinic receptor): 25 to 100% | EC50 (M1 muscarinic receptor): < 2 µM | Emax (M1 muscarinic receptor): 25 to 100% | EC50 (M2 muscarinic receptor): < 2 µM | Emax (M2 muscarinic receptor): < 25%

C[C@@H](C(=O)N[C@@H]1CCC2(CCN(CCC(C)(C)C)CC2)c2ccccc21)N1CCCC1=O [compound 146]
EC50 (M3 muscarinic receptor): > 5 µM | Emax (M3 muscarinic receptor): < 25% | EC50 (M4 muscarinic receptor): < 2 µM | Emax (M4 muscarinic receptor): 25 to 100% | EC50 (M1 muscarinic receptor): > 5 µM | Emax (M1 muscarinic receptor): 25 to 100% | EC50 (M2 muscarinic receptor): > 5 µM | Emax (M2 muscarinic receptor): < 25%

COCCC(=O)N[C@H]1CCC2(CCN(CCC(C)(C)C)CC2)c2ccccc21 [compound 147]
EC50 (M3 muscarinic receptor): > 5 µM | Emax (M3 muscarinic receptor): < 25% | EC50 (M4 muscarinic receptor): < 2 µM | Emax (M4 muscarinic receptor): 25 to 100% | EC50 (M1 muscarinic receptor): < 2 µM | Emax (M1 muscarinic receptor): 25 to 100% | EC50 (M2 muscarinic receptor): < 2 µM | Emax (M2 muscarinic receptor): 25 to 100%

CC(C)CCN1CCC2(CC[C@H](NC(=O)N(C)C)c3ccccc32)CC1 [compound 148]
EC50 (M3 muscarinic receptor): > 5 µM | Emax (M3 muscarinic receptor): < 25% | EC50 (M4 muscarinic receptor): 2 to 5 µM | Emax (M4 muscarinic receptor): 25 to 100% | EC50 (M1 muscarinic receptor): > 5 µM | Emax (M1 muscarinic receptor): < 25% | EC50 (M2 muscarinic receptor): > 5 µM | Emax (M2 muscarinic receptor): < 25%

CC(=O)N1CCCC[C@@H]1C(=O)N[C@@H]1CCC2(CCN(CCC(C)(C)C)CC2)c2cc(F)ccc21 [compound 149]
EC50 (M3 muscarinic receptor): > 5 µM | Emax (M3 muscarinic receptor): < 25% | EC50 (M4 muscarinic receptor): < 2 µM | Emax (M4 muscarinic receptor): 25 to 100% | EC50 (M1 muscarinic receptor): 2 to 5 µM | Emax (M1 muscarinic receptor): 25 to 100% | EC50 (M2 muscarinic receptor): 2 to 5 µM | Emax (M2 muscarinic receptor): 25 to 100%

CC(=O)N[C@H]1CCC2(CCN(CC=C(C)C)CC2)c2ccccc21 [compound 150]
EC50 (M3 muscarinic receptor): > 5 µM | Emax (M3 muscarinic receptor): < 25% | EC50 (M4 muscarinic receptor): 2 to 5 µM | Emax (M4 muscarinic receptor): 25 to 100% | EC50 (M1 muscarinic receptor): > 5 µM | Emax (M1 muscarinic receptor): 25 to 100% | EC50 (M2 muscarinic receptor): > 5 µM | Emax (M2 muscarinic receptor): < 25%

Cc1cc(C(=O)N[C@H]2CCC3(CCN(CCC(C)(C)C)CC3)c3ccccc32)nn1C [compound 151]
EC50 (M3 muscarinic receptor): > 5 µM | Emax (M3 muscarinic receptor): < 25% | EC50 (M4 muscarinic receptor): < 2 µM | Emax (M4 muscarinic receptor): 25 to 100% | EC50 (M1 muscarinic receptor): < 2 µM | Emax (M1 muscarinic receptor): 25 to 100% | EC50 (M2 muscarinic receptor): > 5 µM | Emax (M2 muscarinic receptor): < 25%

CC(C)(C)CCN1CCC2(CC[C@@H](NC(=O)CC3CCOCC3)c3ccccc32)CC1 [compound 152]
EC50 (M3 muscarinic receptor): > 5 µM | Emax (M3 muscarinic receptor): < 25% | EC50 (M4 muscarinic receptor): < 2 µM | Emax (M4 muscarinic receptor): 25 to 100% | EC50 (M1 muscarinic receptor): > 5 µM | Emax (M1 muscarinic receptor): < 25% | EC50 (M2 muscarinic receptor): > 5 µM | Emax (M2 muscarinic receptor): < 25%

CC(=O)N(C(C)C)[C@H]1CCC2(CCN(CCC(C)(C)C)CC2)c2ccccc21 [compound 154]
EC50 (M3 muscarinic receptor): > 5 µM | Emax (M3 muscarinic receptor): < 25% | EC50 (M4 muscarinic receptor): < 2 µM | Emax (M4 muscarinic receptor): 25 to 100% | EC50 (M1 muscarinic receptor): < 2 µM | Emax (M1 muscarinic receptor): 25 to 100% | EC50 (M2 muscarinic receptor): > 5 µM | Emax (M2 muscarinic receptor): < 25%

CCC(=O)N[C@H]1CCC2(CCN(CCC(C)(C)C)CC2)c2ccccc21 [compound 156]
EC50 (M3 muscarinic receptor): > 5 µM | Emax (M3 muscarinic receptor): < 25% | EC50 (M4 muscarinic receptor): < 2 µM | Emax (M4 muscarinic receptor): 25 to 100% | EC50 (M1 muscarinic receptor): < 2 µM | Emax (M1 muscarinic receptor): 25 to 100% | EC50 (M2 muscarinic receptor): < 2 µM | Emax (M2 muscarinic receptor): 25 to 100%

— patent US8003660B2, “Modulators of muscarinic receptors” (Vertex Pharmaceuticals Incorporated, priority 2006, dated 2011)
